16 compounds from ChEMBL document CHEMBL3045469, “Design, synthesis and preliminary evaluation of some novel [1,4]diazepino [5,6-b]pyrrolizine and 6-(2-oxopyrrolidino)-1H-pyrrolizine derivatives as anticonvulsant agents” (Med Chem Res, 2011) can be followed below.

In data set [1] the test system is Mus musculus. The experiment in a line: Anticonvulsant activity in Mus musculus Swiss albino (mouse) assessed as protection against pentylenetetrazole-induced seizures at 100 mg/kg, ip administered 1 hr prior to pentylenetetrazole-challenge measured up to 1 hr relative to control. The format is functional. The note with it: route intraperitoneal.
Data set [2] relates to Mus musculus. Briefly: Anticonvulsant activity in Mus musculus Swiss albino (mouse) assessed as protection against pentylenetetrazole-induced seizures at 75 mg/kg, ip administered 1 hr prior to pentylenetetrazole-challenge measured up to 1 hr relative to control. It counts as functional. The settings on record: route intraperitoneal.
In data set [3] the test system is Mus musculus. Briefly: Anticonvulsant activity in Mus musculus Swiss albino (mouse) assessed as protection against pentylenetetrazole-induced seizures at 50 mg/kg, ip administered 1 hr prior to pentylenetetrazole-challenge measured up to 1 hr relative to control. The note with it: route intraperitoneal. The format is functional.
For data set [4], the system named is Mus musculus. Briefly: Anticonvulsant activity in ip dosed Mus musculus Swiss albino (mouse) assessed as protection against pentylenetetrazole-induced seizures administered 1 hr prior to pentylenetetrazole-challenge measured up to 1 hr relative to phenobarbital. The format is functional.
Data set [5] has as its system Mus musculus. The experiment in a line: Anticonvulsant activity in ip dosed Mus musculus Swiss albino (mouse) assessed as protection against pentylenetetrazole-induced seizures administered 1 hr prior to pentylenetetrazole-challenge measured up to 1 hr. The format is functional. The settings on record: read-out: PD50.
For data set [6], the system named is Mus musculus. Briefly: Toxicity in Mus musculus albino (mouse) assessed as mortality at 600 to 2400 mg/kg, ip after 24 hr. It counts as organism-based. The note with it: in vivo. Also noted: dose 600-2400 mg/kg, route intraperitoneal.
Data set [7] deals with Mus musculus. Briefly: Toxicity in Mus musculus albino (mouse) assessed as mortality at 300 mg/kg, ip after 24 hr. It counts as organism-based. Also noted: dose 300 mg/kg, route intraperitoneal. The settings on record: in vivo.
Data set [8] in a line: Toxicity in ip dosed Mus musculus albino (mouse) after 24 hr. The format is organism-based. The note with it: in vivo.
The subject of data set [9] is Mus musculus. Briefly: Anticonvulsant activity in Mus musculus Swiss albino (mouse) assessed as protection against pentylenetetrazole-induced seizures at 10 mg/kg, ip administered 1 hr prior to pentylenetetrazole-challenge measured up to 1 hr relative to control. The settings on record: route intraperitoneal. The format is functional.
Data set [10] concerns Mus musculus. The experiment in a line: Toxicity in Mus musculus albino (mouse) assessed as mortality at 160 to 400 mg/kg, ip after 24 hr. It counts as organism-based. Also on record: dose 160-400 mg/kg, route intraperitoneal. The settings on record: in vivo.
For data set [11], the system named is Mus musculus. The experiment in a line: Toxicity in Mus musculus albino (mouse) assessed as mortality at 100 mg/kg, ip after 24 hr. Also on record: dose 100 mg/kg, route intraperitoneal. It counts as organism-based. The note with it: in vivo.
Data set [12] has as its system Mus musculus. The experiment in a line: Anticonvulsant activity in Mus musculus Swiss albino (mouse) assessed as protection against pentylenetetrazole-induced seizures at 30 mg/kg, ip administered 1 hr prior to pentylenetetrazole-challenge measured up to 1 hr relative to control. The format is functional. The settings on record: route intraperitoneal.
The subject of data set [13] is Mus musculus. The experiment in a line: Anticonvulsant activity in Mus musculus Swiss albino (mouse) assessed as protection against pentylenetetrazole-induced seizures at 20 mg/kg, ip administered 1 hr prior to pentylenetetrazole-challenge measured up to 1 hr relative to control. It counts as functional. The note with it: route intraperitoneal.

As for `N#Cc1c(NC(=O)CCCCl)c(C(=O)Nc2ccc(Cl)cc2)n2c1CCC2`, the Activity is 40% in the data set on Mus musculus [1], 40% in the data set on Mus musculus [2], 20% in the data set with Mus musculus [3] and 19.7% in the data set on Mus musculus [4]. Further, the ED50 in the data set on Mus musculus [5] is 117 mg/kg.

Consider `N#Cc1c(N2CCCC2=O)c(C(=O)Nc2ccccc2)n2c1CCC2`, for which the Activity in the data set with Mus musculus [1] is on record as 0%; in the data set with Mus musculus [2] it was 20%; in the data set with Mus musculus [3], 60%; with Mus musculus [4] it was 34.2%. Moreover, the ED50 in the data set on Mus musculus [5] worked out at 55.6 mg/kg.

Take `Cc1ccc(NC(=O)c2c(N3CCCC3=O)c(C#N)c3n2CCC3)cc1`: the Activity in the data set with Mus musculus [1] was 0%; in the data set with Mus musculus [2] it was 0%; with Mus musculus [3] it was 40%; in the data set on Mus musculus [6], “Toxic”; with Mus musculus [7] it was “Non-toxic”; in the data set on Mus musculus [4], 67.9%. In addition, the LD50 at 24 h in [8] turned out to be 1010 mg/kg. Further, in the data set on Mus musculus [5], the ED50 was 29.2 mg/kg.

Regarding `N#Cc1c(N2CCCC2=O)c(C(=O)Nc2ccc(Cl)cc2)n2c1CCC2`, the Activity in the data set with Mus musculus [1] was 0%; with Mus musculus [2], 20%; in the data set with Mus musculus [3], 40%; with Mus musculus [4] it was 55.8%. Moreover, the ED50 with Mus musculus [5] came to 37.5 mg/kg.

Consider `N#Cc1c(NC(=O)CCl)c(C(=O)Nc2ccccc2)n2c1CCC2`, for which the Activity with Mus musculus [1] was determined as 40%; in the data set on Mus musculus [2], 20%; in the data set with Mus musculus [3] it was 0%; in the data set on Mus musculus [4], 17.3%. In addition, the ED50 in the data set on Mus musculus [5] amounted to 112 mg/kg.

Regarding `Cc1ccc(NC(=O)c2c(NC(=O)CCl)c(C#N)c3n2CCC3)cc1`, the Activity in the data set with Mus musculus [1] worked out at 40%; in the data set with Mus musculus [2], 40%; in the data set with Mus musculus [3], 20%; in the data set with Mus musculus [4] it was 17.4%. Further, in the data set with Mus musculus [5], the ED50 is 117 mg/kg.

For `N#Cc1c(NC(=O)CCl)c(C(=O)Nc2ccc(Cl)cc2)n2c1CCC2`, the Activity with Mus musculus [1] is recorded as 60%; with Mus musculus [2], 40%; in the data set on Mus musculus [3], 0%; in the data set on Mus musculus [4], 24.1%. For the same compound, the ED50 with Mus musculus [5] was determined as 88.9 mg/kg.

For `N#Cc1c2c(n3c1CCC3)C(=O)N(c1ccccc1)CC(=O)N2`, the Activity came to 40% with Mus musculus [1], 40% with Mus musculus [2], 20% with Mus musculus [3] and 14.9% in the data set with Mus musculus [4]. Besides, the ED50 with Mus musculus [5] amounted to 117 mg/kg.

On to `Cc1ccc(N2CC(=O)Nc3c(C#N)c4n(c3C2=O)CCC4)cc1`, for which the Activity in the data set on Mus musculus [1] is recorded as 20%; in the data set on Mus musculus [2] it was 20%; with Mus musculus [3], 0%; in the data set with Mus musculus [4] it was 10.9%. Besides, the ED50 with Mus musculus [5] was 167 mg/kg.

For `N#Cc1c2c(n3c1CCC3)C(=O)N(c1ccc(Cl)cc1)CC(=O)N2`, the Activity is 20% with Mus musculus [1], 0% in the data set with Mus musculus [2], 0% with Mus musculus [3] and 10.6% in the data set with Mus musculus [4]. Further, the ED50 with Mus musculus [5] came to 183 mg/kg.

Consider `CN1C(=O)CN(c2ccccc2)C(=O)c2c1c(C#N)c1n2CCC1`, for which the Activity in the data set with Mus musculus [1] was determined as 40%; with Mus musculus [2], 20%; in the data set with Mus musculus [3] it was 0%; in the data set on Mus musculus [4], 16.2%. Further, in the data set with Mus musculus [5], the ED50 is 112 mg/kg.

As to `Cc1ccc(N2CC(=O)N(C)c3c(C#N)c4n(c3C2=O)CCC4)cc1`, the Activity with Mus musculus [1] was 20%; with Mus musculus [2], 20%; with Mus musculus [3], 0%; in the data set with Mus musculus [4] it was 11.4%. The ED50 in the data set on Mus musculus [5] was 167 mg/kg.

On to `CN1C(=O)CN(c2ccc(Cl)cc2)C(=O)c2c1c(C#N)c1n2CCC1`, for which the Activity in the data set with Mus musculus [1] turned out to be 40%; in the data set with Mus musculus [2], 20%; in the data set with Mus musculus [3] it was 20%; in the data set on Mus musculus [4], 15.1%. Further, the ED50 with Mus musculus [5] stood at 133 mg/kg.

`N#Cc1c(NC(=O)CCCCl)c(C(=O)Nc2ccccc2)n2c1CCC2`: the Activity in the data set with Mus musculus [1] was 60%; in the data set on Mus musculus [2], 40%; in the data set on Mus musculus [3], 0%; with Mus musculus [4], 23.7%. The ED50 in the data set on Mus musculus [5] worked out at 88.9 mg/kg.

With `Cc1ccc(NC(=O)c2c(NC(=O)CCCCl)c(C#N)c3n2CCC3)cc1`, the Activity with Mus musculus [1] was 40%; with Mus musculus [2], 20%; with Mus musculus [3], 0%; in the data set on Mus musculus [4] it was 19.4%. For the same compound, in the data set with Mus musculus [5], the ED50 worked out at 112 mg/kg.

Consider `CCC1(c2ccccc2)C(=O)NC(=O)NC1=O` [PHENOBARBITAL], for which the Activity in the data set with Mus musculus [9] is recorded as 40%; in the data set with Mus musculus [10], “Toxic”; in the data set with Mus musculus [11], “Non-toxic”; with Mus musculus [12] it was 100%; in the data set on Mus musculus [13] it was 60%. Further, in data set [8], the LD50 at 24 h is 251 mg/kg. Also, the ED50 in the data set on Mus musculus [5] stood at 14.4 mg/kg.
